One test relates to PCB490-3 (human epithelioid sarcoma primary culture). The method, then: (§1)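 Roche open-access kinase inhibitor screen (223 compounds) on human epithelioid sarcoma primary cultures from three spatially distinct regions of tumor PCB490. 384-well plates, 72 h, CellTiter-Glo viability; IC50 by Hill curve fit. 100000 nM = no IC50 reached. Compound ids carry a plate-well prefix, which is stripped.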
For another test, the system named is PCB490-4 (human epithelioid sarcoma primary culture). The method, then: as §1
The test system of the next test is PCB490-5 (human epithelioid sarcoma primary culture). The method, then:
as §1

The values that follow come from the supplement of paper PMC6580486.

Molecules are shown by their SMILES.

As for `Cn1c(=O)c(Oc2ccc(F)cc2)cc2cnc(NC3CCOCC3)nc21`, the IC50 cell viability with PCB490-3, in the test with PCB490-4 and in the test on PCB490-5 was > 100 µM each time.
Consider `CC(C)(O)CCc1cccc(C(=O)c2cnn(-c3ccc(F)cc3)c2N)c1`, for which the IC50 cell viability in the test on PCB490-3, with PCB490-4 and in the test with PCB490-5 was > 100 µM in each case.
With `O=C1NC(=NCCc2ccc(Br)cc2)S/C1=C\c1ccc2ncccc2c1`, the IC50 cell viability in the test on PCB490-3, with PCB490-4 and in the test on PCB490-5 was > 100 µM throughout.
In the case of `Cc1[nH]nc2c1N=C(c1ccccc1F)c1cc(C(N)=O)ccc1N2`, the IC50 cell viability is > 100 µM in the test on PCB490-3, 2.66 µM in the test with PCB490-4 and 4.23 µM in the test on PCB490-5.
For `CN1CCN(CCc2cccc(C(=O)c3cnn(-c4ccc(F)cc4)c3N)c2)CC1` the same measures were > 100 µM, > 100 µM and > 100 µM.
Consider `Cc1ccccc1-n1ncc(C(=O)c2ccccc2)c1N`, for which the IC50 cell viability in the test on PCB490-3, with PCB490-4 and in the test on PCB490-5 was > 100 µM throughout.
`Nc1c(C(=O)c2cccc(-c3ccc[n+]([O-])c3)c2)cnn1-c1ccc(F)cc1F`: the IC50 cell viability in the test with PCB490-3, with PCB490-4 and in the test on PCB490-5 was > 100 µM in each case.
For `O=C1NC(=NCCc2ccc(F)cc2)S/C1=C\c1ccc2ncccc2c1`, the IC50 cell viability in the test on PCB490-3, in the test with PCB490-4 and with PCB490-5 was > 100 µM throughout.
Regarding `O=C1NC(=NCCc2cccs2)S/C1=C\c1ccc2ncccc2c1`, the IC50 cell viability in the test with PCB490-3, in the test on PCB490-4 and with PCB490-5 was > 100 µM throughout.
Take `Cn1c(=O)c(-c2ccccc2Cl)cc2cnc(NC3CCOCC3)nc21`: the IC50 cell viability in the test with PCB490-3, in the test on PCB490-4 and in the test with PCB490-5 was > 100 µM throughout.
For `O=C1NC(=NCCc2ccccc2Cl)S/C1=C\c1ccc2ncccc2c1`, the IC50 cell viability in the test on PCB490-3, with PCB490-4 and in the test on PCB490-5 was > 100 µM in each case.
Consider `Cn1cc(C2=C(c3cn(C)c4c([N+](=O)[O-])cccc34)C(=O)NC2=O)c2ccccc21`, for which the IC50 cell viability in the test on PCB490-3, with PCB490-4 and in the test with PCB490-5 was > 100 µM each time.
On to `O=[N+]([O-])c1ccc2c(c1)C(c1ccccc1Cl)=Nc1cn[nH]c1N2`, for which the IC50 cell viability in the test on PCB490-3, in the test with PCB490-4 and in the test on PCB490-5 was > 100 µM throughout.
For the compound `C[C@@H](CS(C)(=O)=O)Nc1ncc2cc(Oc3ccc(F)cc3F)c(=O)n(C)c2n1`, the IC50 cell viability in the test with PCB490-3, with PCB490-4 and with PCB490-5 was > 100 µM each time.
On to `Cc1[nH]nc2c1N=C(c1ccccc1F)c1cc(C#N)ccc1N2`, for which the IC50 cell viability with PCB490-3, with PCB490-4 and in the test with PCB490-5 was > 100 µM in each case.
For the compound `CS(=O)(=O)N1CCC(Nc2ncc(C(=O)c3c(F)cccc3F)c(N)n2)CC1`, the IC50 cell viability with PCB490-3, with PCB490-4 and with PCB490-5 was > 100 µM each time.
Turning to `Cn1cc(C2=C(c3cn(CCCCCN)c4ccccc34)C(=O)NC2=O)c2ccccc21`, the IC50 cell viability with PCB490-3, in the test with PCB490-4 and in the test with PCB490-5 was > 100 µM throughout.
Regarding `Cn1cc(C2=C(c3ccc(N)cc3)C(=O)NC2=O)c2ccccc21`, the IC50 cell viability in the test on PCB490-3, in the test with PCB490-4 and in the test with PCB490-5 was > 100 µM throughout.
For the compound `Cn1cc(C2=C(c3cccc(OCC(O)CO)c3)C(=O)NC2=O)c2ccccc21` (configuration not stated), the IC50 cell viability with PCB490-3, in the test on PCB490-4 and in the test with PCB490-5 was > 100 µM throughout.
`Cn1cc(C2=C(n3ccc4ccccc43)C(=O)NC2=O)c2ccccc21`: the IC50 cell viability with PCB490-3, with PCB490-4 and with PCB490-5 was > 100 µM each time.
With `CN[C@H](C#Cc1c(F)ccc2c1/C(=C/c1[nH]ccc1OC)C(=O)N2)CO`, the IC50 cell viability is > 100 µM in the test on PCB490-3, > 100 µM in the test on PCB490-4 and 1.77 µM in the test on PCB490-5.
For `O=C1NC(=NCCc2ccccc2F)S/C1=C\c1ccc2ncccc2c1`, the IC50 cell viability in the test with PCB490-3, in the test on PCB490-4 and in the test on PCB490-5 was > 100 µM throughout.
For the compound `COc1ccc(OC)c(C2=C(c3cn(C)c4ccccc34)C(=O)NC2=O)c1`, the IC50 cell viability in the test on PCB490-3, in the test on PCB490-4 and with PCB490-5 was > 100 µM in each case.
As for `O=c1c(Oc2ccc(F)cc2F)cc2cnc(NC3CCOCC3)nc2n1C1CC1`, the IC50 cell viability in the test on PCB490-3, in the test on PCB490-4 and in the test with PCB490-5 was > 100 µM throughout.
With `CN1CCN(CC#Cc2cccc(C(=O)c3cnn(-c4ccc(F)cc4)c3N)c2)CC1`, the IC50 cell viability with PCB490-3, with PCB490-4 and in the test on PCB490-5 was > 100 µM each time.
Consider `Nc1c(C(=O)c2cccc(C(O)(CO)CO)c2)cnn1-c1ccc(F)cc1`, for which the IC50 cell viability in the test with PCB490-3, with PCB490-4 and with PCB490-5 was > 100 µM in each case.
In the case of `Nc1c(C(=O)c2cccc(-c3cccnc3)c2)cnn1-c1ccc(F)cc1F`, the IC50 cell viability in the test on PCB490-3, in the test on PCB490-4 and in the test on PCB490-5 was > 100 µM each time.
`O=C1NC(=NCc2ccccc2Br)S/C1=C\c1ccc2ncccc2c1`: the IC50 cell viability with PCB490-3, in the test on PCB490-4 and in the test on PCB490-5 was > 100 µM throughout.
For the compound `Cn1cc(C2=C(c3ccsc3)C(=O)NC2=O)c2ccccc21`, the IC50 cell viability with PCB490-3, in the test with PCB490-4 and with PCB490-5 was > 100 µM throughout.
With `Cn1cc(C2=C(c3c4n(c5ccccc35)CCCCC4)C(=O)NC2=O)c2ccccc21`, the IC50 cell viability with PCB490-3, in the test on PCB490-4 and with PCB490-5 was > 100 µM in each case.
`Cn1cc(C2=C(c3cccc(Br)c3)C(=O)NC2=O)c2ccccc21`: the IC50 cell viability in the test with PCB490-3, with PCB490-4 and in the test with PCB490-5 was > 100 µM each time.
For `N#Cc1ccc(C(=O)c2cnn(-c3ccc(F)cc3)c2N)cc1`, the IC50 cell viability in the test with PCB490-3, with PCB490-4 and in the test with PCB490-5 was > 100 µM each time.
As to `Cc1nc2sc3c(N)ncnc3c2c(C)c1C`, the IC50 cell viability in the test with PCB490-3, in the test with PCB490-4 and with PCB490-5 was > 100 µM in each case.
Turning to `Cn1cc(C2=C(Oc3ccccc3)C(=O)NC2=O)c2ccccc21`, the IC50 cell viability in the test with PCB490-3, in the test on PCB490-4 and in the test on PCB490-5 was > 100 µM in each case.
On to `CNCC1CCn2c(c(C3=C(c4cn(C)c5ccccc45)C(=O)NC3=O)c3ccccc32)C1` (configuration not stated), for which the IC50 cell viability was 0.89 µM in the test on PCB490-3, > 100 µM with PCB490-4 and > 100 µM in the test with PCB490-5.
Regarding `COc1cc(F)c(F)cc1C(=O)c1cnc(NC2CCN(S(C)(=O)=O)CC2)nc1N`, the IC50 cell viability in the test on PCB490-3, with PCB490-4 and in the test on PCB490-5 was > 100 µM in each case.
In the case of `Cc1ccc(C)c(C2=C(c3cn(C)c4ccccc34)C(=O)NC2=O)c1`, the IC50 cell viability with PCB490-3, in the test with PCB490-4 and with PCB490-5 was > 100 µM throughout.
As to `COc1cccc(F)c1C(=O)c1cnc(NC2CCN(S(C)(=O)=O)CC2)nc1N`, the IC50 cell viability in the test with PCB490-3, in the test on PCB490-4 and in the test on PCB490-5 was > 100 µM in each case.
As for `O=C1NC(=NCc2ccccc2)S/C1=C\c1ccc2ncccc2c1`, the IC50 cell viability in the test with PCB490-3, in the test with PCB490-4 and in the test with PCB490-5 was > 100 µM in each case.
As for `COc1cc[nH]c1/C=C1\C(=O)Nc2ccc(F)c(C#C[C@@H](O)[C@@H](N)[C@@H](C)O)c21`, the IC50 cell viability with PCB490-3 is > 100 µM; in the test with PCB490-4, 4.44 µM; in the test on PCB490-5, 2.07 µM.
The corresponding values for `Fc1ccc(-c2c(-c3ccncc3)[nH]c3cccnc23)cc1` are > 100 µM, > 100 µM and > 100 µM.
For `Nc1c(C(=O)c2ccccc2)cnn1-c1ccc(F)cc1` the same measures were > 100 µM, > 100 µM and > 100 µM.
For `Cn1cc(C2=C(c3c4n(c5ccccc35)CCCC4)C(=O)NC2=O)c2ccccc21` the same measures were > 100 µM, > 100 µM and > 100 µM.
Regarding `CCCn1cc(C2=C(c3cn(C)c4ccccc34)C(=O)NC2=O)c2ccccc21`, the IC50 cell viability with PCB490-3, in the test with PCB490-4 and with PCB490-5 was > 100 µM throughout.
On to `Cn1c(=O)c(Oc2ccc(F)cc2F)cc2cnc(NCCS(C)(=O)=O)nc21`, for which the IC50 cell viability in the test on PCB490-3, with PCB490-4 and in the test on PCB490-5 was > 100 µM in each case.
As for `CSc1c(C2=C(c3cn(C)c4ccccc34)C(=O)NC2=O)c2ccccc2n1C`, the IC50 cell viability in the test on PCB490-3, in the test on PCB490-4 and in the test with PCB490-5 was > 100 µM each time.
As for `CC(=O)N[C@@H](Cc1ccc(OP(=O)(O)O)cc1)C(=O)N[C@H]1CCC(=O)N2CCC[C@@H](C(=O)NCc3ccc(O)cc3)N2C1=O`, the IC50 cell viability with PCB490-3, with PCB490-4 and in the test with PCB490-5 was > 100 µM each time.
`O=C1NC(=O)C(c2c[nH]c3ccccc23)=C1c1ccccc1`: the IC50 cell viability in the test with PCB490-3, in the test on PCB490-4 and in the test on PCB490-5 was > 100 µM throughout.
Turning to `COc1ccc(C2=C(c3cn(C)c4ccccc34)C(=O)NC2=O)cc1OC`, the IC50 cell viability in the test with PCB490-3, in the test on PCB490-4 and with PCB490-5 was > 100 µM each time.
